Five molecules from US9439882B2, “Compounds and compositions for the treatment of cancer” (PROMETIC BIOSCIENCES, INC., priority 2010, dated 2016) can be followed below.

A word on the inhibition: it is the drop in the measured response relative to a control, in per cent.

Experiment [1] has as its system CTGF production. Briefly: Inhibition of TGF-induced CTGF production in NHDF (ELISA). It counts as cell-based. Conditions: Homo sapiens, 10 ng/mL TGF-β, 48 h. On the procedure: (§1) The effect of selected compounds on CTGF production was undertaken in normal human dermal fibroblast (NHDF) or human mesangial cells. Cells were cultured in DMEM (0.5% FBS) with or without 10 ng/mL of TGF-β for 48 h in a humidified atmosphere of 95% air-5% carbon dioxide at 37° C. CTGF measurement in the culture medium was measured using the CTGF ELISA according to the manufacturer (Prepotech) recommendations.
For orientation: ELISA stands for enzyme-linked immunosorbent assay.

The subject of the next experiment is P815 mastocytoma. Briefly: Primary P815 mastocytoma tumor growth in mice. It counts as in vivo. An excerpt:
The syngeneic tumor P815 is a DBA/2 (H-2^d)-derived mastocytoma obtained from ATCC (TIB64). […] Mice were sacrificed around day 23 (depending on the experiment). […] Tumors were palpable, in general, 3-5 days post-inoculation.

The test system of experiment [2] is CTGF production. As to the kind of experiment: Inhibition of TGF-induced CTGF production in human mesangial cells (ELISA). It is filed as cell-based. Conditions: FIG. 2. As to the method:
as §1

Another experiment deals with HK-2 cells. As to the kind of experiment: TGF-β induced epithelial to mesenchymal transition in HK-2 cells (real-time PCR of E-cadherin, CTGF, collagen 1). It is filed as cell-based, human. To be noted: sodium decanoate and Compound I at 0.5 mM; for TGF-β induced EMT: HK-2 cells; for CTGF transcript expression / collagen 1 transcript expression: TGF-β-stimulated cells, 24 h, normalized to GAPDH; for basal expression of CTGF / basal expression of collagen 1: compound alone, no TGF-β. As to the method: FIG. 20 is a bar graph showing the effect of Compound XVII on E-cadherin in normal HK-2 cells and in TGF-β induced EMT cells. Real-time PCR using human E-cadherin TaqMan® Gene Expression Assay normalized to human GAPDH endogenous control; reference is […] cells 24 h (RQ=1). *means p<0.05, and ** means p<0.01 (t-test).
FIG. 21 is a bar graph showing the effect of Compound XVII on CTGF in normal HK-2 cells and in TGF-β induced EMT cells. Real-time PCR using human CTGH TaqMan® Gene Expression Assay normalized to human GAPDH endogenous control; reference is TGF-β-treated cells 24 h (RQ=1). *means p<0.05, and ** means p<0.01 (t-test).
FIG. 22 is a bar graph showing the effect of Compound XVII on collagen 1 in normal HK-2 cells and in TGF-β induced EMT cells. Real-time PCR using human Collagen 1 TaqMan® Gene Expression Assay normalized to human GAPDH endogenous control; reference is TGF-β-treated cells 24 h (RQ=1). ** means p<0.01 (t-test).
Real-time PCR using human CTGF TaqMan® Gene Expression Assay and Collagen 1 TaqMan® Gene Expression Assay normalized to human GAPDH endogenous control; reference is TGF-β-treated cells 24 h (RQ=1).
FIG. 24 is a bar graph showing the effect of Compound I on CTGF and collagen 1 expression in normal HK-2 cells and in TGF-β induced EMT cells. Real-time PCR using human CTGF TaqMan® Gene Expression Assay and Collagen 1α1 TaqMan® Gene Expression Assay normalized to human GAPDH endogenous control; reference is TGF-β-treated cells 24 h (RQ=1). Compound I is added at 0.5 mM.
Further analysis was undertaken to determine the effect of Compoounds on EMT. The effect of Compound XVII on TGF-β induced EMT was analyzed on human epithelial […] cells (HK-2). To assess the progression of EMT, the pro-epithelial marker E-cadherin and the mesenchymal/pro-fibrotic markers CTGF and collagen 1 were assayed by quantitative real-time PCR. To determine the efficacy of Compound XVII in inhibiting TGF-β-induced EMT, verification of the ability of TGF-β to induce EMT in HK-2 cells.
(Real-time PCR tracks product formation cycle by cycle.)

The test system of a further experiment is IL-12 production. As to the kind of experiment: IL-12 production in LPS-stimulated RAW264.7 cells (ELISA). It counts as cell-based. Conditions: compound 0.5 mM; 100 ng/mL LPS, 21 h. As to the method:
The effect of selected compounds on IL-12 production was undertaken in RAW264.7 (macrophage-like) cells. RAW264.7 cells were cultured with 100 ng/mL of LPS in presence or absence of compounds for 21 h in a humidified atmosphere of 95% air-5% carbon dioxide at 37° C. IL-12 concentration in the culture medium was measured using the IL-12 ELISA according to the manufacturer (BD Biosciences) recommendations. […] Compounds have no effect on IL-12 production in the absence of LPS.

Experiment [3] concerns human prostate PC-3 tumor. Briefly: Xenograft human prostate PC-3 tumor in mice. It counts as in vivo. To be noted: cyclophosphamide alone; p≦0.05; FIG. 15. As to the method:
The xenogenic human prostate tumor PC-3 was obtained from ATCC (CRL1435). PC-3 cells were grown in RPMI-1640 containing 10% fetal bovine serum. At day 0, 50 μL of viable PC-3 (1.5 to 2×10^6) cells were subcutaneously injected to produce localized tumors in 6- to 8-week old male CD1 nu/nu mice. The animals were then serially monitored by manual palpation for evidence of tumor. […] Mice were sacrificed at day 56. Serial tumor volume was obtained by bi-dimensional diameter measurements with calipers, using the formula 0.4 (a×b^2) where “a” was the major tumor diameter and “b” the minor perpendicular diameter.
(In general: In xenograft studies the graft and the host belong to different species.)

In the next experiment the test system is Panc02 pancreatic cancer. Briefly: Subcutaneous Panc02 pancreatic tumor growth. It is filed as in vivo, mice. Conditions: from day 34-39; oral; p<0.05; FIG. 16.
For a further experiment, the system named is B16F10 melanoma cells. As to the kind of experiment: Primary B16F10 melanoma tumor in mice. It is filed as in vivo. To be noted: C57BL/6 mice; sodium decanoate 100 mg/kg oral daily, doxorubicin 5 mg/kg (subtherapeutic dose); FIG. 3. On the procedure:
Female 6-8 week old C57BL/6 mice were injected subcutaneously on day 0 with 50 μL of 3.75×10^4 viable B16F10 melanoma cells from ATCC (source of cell culture, Dr. I. J. Fidler). On day 14, tumors reached […] and animals were randomized for treatment. […] Mice were sacrificed on day 12.

The subject of the next experiment is CT-26WT colon tumor. As to the kind of experiment: Primary colon CT-26WT tumor in mice. It is filed as in vivo. Conditions: sodium decanoate oral 200 mg/kg daily; 5-fluorouracil i.p. 40 mg/kg day 6, 13, 20; Compound XV oral; FIG. 12 and 13. On the procedure: The syngeneic tumor CT-26WT (CT-26) is a colon tumor cell line obtained from ATCC (CRL-2638). CT-26 cells were grown in RPMI containing 10% fetal bovine serum. At day 0, 50 μL of 5×10^6 viable CT-26 cells were subcutaneously injected to produce localized tumors in 6- to 8-week old mice. The animals were then serially monitored by manual palpation for evidence of tumor. […] Mice were sacrificed at day 25. Serial tumor volume was obtained by bi-dimensional diameter measurements with calipers, using the formula 0.4 (a×b^2) where “a” was the major tumor diameter and “b” the minor perpendicular diameter. Tumors were palpable, in general, 3-5 days post-inoculation.

The next experiment deals with LL/2 lung tumor. Briefly: LL/2 lung tumor in mice. It is filed as in vivo. Conditions: sodium decanoate oral 200 mg/kg daily; gemcitabine i.p. 50 mg/kg day 1, 8, 15, 22; FIG. 11. An excerpt:
The syngeneic tumor LL/2 is a lung tumor cell line obtained from ATCC (CRL-1642). […] Mice were sacrificed at day 26. […] Tumors were palpable, in general, 3-5 days post-inoculation.

The subject of the next experiment is P815 liver metastasis. As to the kind of experiment: P815 liver metastasis in mice. To be noted: oral 200 mg/kg; p<0.05; FIG. 9 and 10. It is filed as in vivo. On the procedure: The syngeneic tumor P815 is a DBA/2 (H-2^d)-derived mastocytoma obtained from ATCC (TIB64). P815 cells were grown in DMEM containing 10% fetal bovine serum. At day 0, 50 μL of 5×10^5 viable P815 cells were subcutaneously injected to produce localized tumors in 6- to 8-week old DBA/2 mice. The animals were then serially monitored by manual palpation for evidence of tumor. […] Mice were sacrificed around day 23 (depending on the experiment). Serial tumor volume was obtained by bi-dimensional diameter measurements with calipers, using the formula 0.4 (a×b^2) where “a” was the major tumor diameter and “b” the minor perpendicular diameter. Tumors were palpable, in general, 3-5 days post-inoculation.
It is known that P815 cells have the capacity to metastasize to the liver.

Experiment [4] has as its system Panc02 pancreatic adenocarcinoma. Briefly: Orthotopic Panc02 pancreatic cancer model, survival. It counts as in vivo. To be noted: C57BL/6 mice; gemcitabine i.p. 50 mg/kg once a week, Compound XV oral 200 mg/kg daily; control 50 days; FIG. 4. On the procedure:
Syngeneic Panc02 is a pancreatic adenocarcinoma tumor cell line obtained from NCI (0507232). Panc02 cells are positive for Ki-Ras, p53, HerNEU and CDK. Panc02 were grown in RPMI-1640 containing 10% fetal bovine serum. At day 0, 50 μL of 5×10^5 viable Panc02 cells were injected into the tail of the pancreas in 6- to 8-week old C57BL/6 mice. Mice were then treated every day with oral administration of vehicle (saline, negative control), or Compound XV and with intraperitoneal injection of gemcitabine (50 mg/kg) once a week starting at day 8.

Regarding `CCCCCc1cccc(CC(=O)[O-])c1.[Na+]` [Compound I, Sodium Salt of (3-pentylphenyl)Acetic Acid], testing at 200 µM in the experiment with CTGF production [1] (200 μM) gave an inhibition of 54%. The P815 tumor growth entry in the experiment on P815 mastocytoma (oral 200 mg/kg, FIG. 7 and 8) is “significant reduction (p<0.05)”. Moreover, the “inhibition of TGF-induced CTGF production” value in the experiment with CTGF production [2] is recorded as “significant (p<0.05) inhibition”. Moreover, in the experiment on HK-2 cells, the “TGF-β induced EMT” value was “significant inhibition”, the CTGF transcript expression entry is given as “reduction”, the “collagen 1 transcript expression” value is “reduction” and the “basal expression of CTGF” value is “reduction”. In addition, the “basal expression of collagen 1” value in the experiment on HK-2 cells is listed as “reduction”. In addition, the “IL-12” value with IL-12 production stood at 54 pg/mL.
Regarding `O=P1(N(CCCl)CCCl)NCCCO1` (stereo not drawn) [Cyclophosphamide, cyclophosphamide], the “tumor growth T/C” value in experiment [3] is listed as 42-78%.
`CCCCCCCCCC(=O)[O-].[Na+]` [Sodium decanoate]: in the experiment on Panc02 pancreatic cancer, the “tumor growth Treated/Control (T/C)” value is 60-70%. In the experiment on B16F10 melanoma cells, the “reduction of primary tumor volume compared to the control” value is given as “around 25%”. Further, the “efficacy on primary tumor CT-26 (single agent)” value with CT-26WT colon tumor is “weak efficacy”. The molecule also returned an inhibition at 500 µM in the experiment on CTGF production [1] (500 μM) of 51%. Moreover, the “efficacy on primary tumor LL/2 (single agent)” value in the experiment on LL/2 lung tumor is “weak efficacy”. Also, the P815 tumor growth result in the experiment with P815 mastocytoma (DBA/2 mice, oral 40-200 mg/kg every day, FIG. 6) is recorded as “significant reduction (p<0.05)”. Further, the P815 tumor growth result in the experiment with P815 mastocytoma (oral 200 mg/kg, FIG. 7 and 8) was “significant reduction (p<0.05)”. In the experiment on HK-2 cells, the “TGF-β induced EMT” value is given as “significant inhibition”, the CTGF transcript expression result is recorded as “reduction”, the “collagen 1 transcript expression” value is “reduction” and the “basal expression of CTGF” value is “reduction”. Moreover, in the experiment on HK-2 cells, the “basal expression of collagen 1” value is on record as “reduction”. The “IL-12” value with IL-12 production amounted to 50 pg/mL. Further, the “reduction of mice with liver metastasis” value in the experiment with P815 liver metastasis was 50%.
`COc1cccc2c1C(=O)c1c(O)c3c(c(O)c1C2=O)C[C@@](O)(C(=O)CO)C[C@@H]3O[C@H]1C[C@H](N)[C@H](O)[C@H](C)O1` [doxorubicin, reference compound]: the “reduction of primary tumor volume compared to the control” value in the experiment with B16F10 melanoma cells is “around 25%”.
For `Nc1ccn([C@@H]2O[C@H](CO)[C@@H](O)C2(F)F)c(=O)n1` [gemcitabine, reference compound], the median survival in [4] was 68.5 days. For the same molecule, the “efficacy on primary tumor LL/2 (single agent)” value in the experiment on LL/2 lung tumor is “weak efficacy”.
